In article PMC8466554, “Heteroaryl-Ethylenes as New Lead Compounds in the Fight against High Priority Bacterial Strains” (Antibiotics, 2021):
≈ marks a conversion by molar mass, not a printed value. Where “and” joins values, the source holds several entries; their conditions need not be identical. Equal entries are not always repeated. Where two headings read alike, the source gives them in different places. Each block holds one compound with its values, some of them ahead of it.

Columns and labels:
S.aureus USA300-CAMRSA = test: MIC and MBC microtiter plate assay; type: cell-based, Staphylococcus aureus
[1] = tested on: Gram-positive control strains; test: MIC and MBC, summary over Gram-positive control strains; type: cell-based, S. aureus and Enterococcus spp.; details: Gram-positive control strains
[2] = tested on: Gram-positive and Gram-negative ATCC strains; test: MIC and MBC, summary over Gram-positive and Gram-negative strains; type: cell-based; details: bactericidal effect defined as MBC/MIC ≤ 4
CaCo-2 cells = test: MTT cytotoxicity assay; type: cell-based, human; details: 24 h of incubation relative to untreated controls
Protocol: To evaluate the biological activity of the PBn series, compounds were screened for toxicity against the colon-rectal cancer cell line CaCo-2 (ATCC HTB-37). These human cancer cells were treated with solutions of the compounds at decreasing concentrations, starting from 100 μM up to 0.01 μM. The reference compound used for these assays was 5-Fluorouracil (5-Fu), a pyrimidine analogue belonging to the family of antimetabolite. […] Briefly, human colorectal adenocarcinoma cells (CaCo-2 HTB-37^TM Colorectal Adenocarcinoma Human, American Type Culture Collection, Manassas, VA, USA) were grown in Dulbecco’s MEM (DMEM) with 10% heat-inactivated fetal bovine serum, 2 mM L-Alanyl-L-Glutamine, penicillin-streptomycin (50 units-50 μg for mL) and incubated at 37 °C in a humidified atmosphere of 5% CO2, 95% air. CaCo-2 cells were plated in 96 well pates and incubated at 37 °C. The PBn series compounds and 5-FU were prepared as a 1 mM solution in 10 mL with 0.01% DMSO. Then, 24 h after plating, cells were treated with 20 μL of each solution. Untreated cells were used as controls. […] The results were read on a multiwell scanning spectrophotometer (AF2200 plate reader, Eppendorf, Milan, Italy), using a wavelength of 569 nm.

S.aureus Mu50-VISA = test: MIC and MBC microtiter plate assay; type: cell-based, Staphylococcus aureus
S.aureus ATCC29213-MSSA = test: MIC and MBC microtiter plate assay; type: cell-based, Staphylococcus aureus
[3] = tested on: K. pneumoniae ATCC BAA-2814; test: MIC microtiter plate assay; type: cell-based, Klebsiella pneumoniae; details: K. pneumoniae ATCC BAA-2814 (MDR strain)
E. coli ATCC25922 = test: MIC and MBC microtiter plate assay, also with different inocula; type: cell-based, Escherichia coli
S.aureus ATCC12598-MSSA = test: as above; type: cell-based, Staphylococcus aureus
[4] = tested on: E. faecalis ATCC51299-VRE; test: as above; type: cell-based
A. baumannii ATCC17978 = test: as above; type: cell-based, Acinetobacter baumannii; details: A. baumannii ATCC17978
[5] = tested on: E. faecalis ATCC29212-VSE; test: MIC and MBC microtiter plate assay; type: cell-based
K. pneumoniae ATCC700603 = test: MIC microtiter plate assay; type: cell-based, Klebsiella pneumoniae
P. aeruginosa ATCC27853 = test: MIC microtiter plate assay; type: cell-based, Pseudomonas aeruginosa
S. aureus ATCC29213 = tested on: S. aureus ATCC29213; design: method as in earlier work; details: library for the QSAR model, ref [1]; cited from earlier work
[6] = S.aureus ATCC12598-MSSA, value in brackets
[7] = E. faecalis ATCC51299-VRE, value in brackets

MIC (S.aureus USA300-CAMRSA): 2 µg/mL | MIC (S.aureus USA300-CAMRSA; value in brackets): 3.46 µM | comparison between MIC and MBC values [1]: no significant differences | MIC (S.aureus Mu50-VISA): 2 µg/mL | MIC (S.aureus Mu50-VISA; value in brackets): 3.46 µM | MIC (S.aureus ATCC29213-MSSA): 2 µg/mL | MIC (S.aureus ATCC29213-MSSA; value in brackets): 3.46 µM | MIC [3]: > 128 µg/mL | MIC ([3]; value in brackets): > 221.22 µM | MIC (E. coli ATCC25922): 128 µg/mL | MIC (E. coli ATCC25922; value in brackets): 221.22 µM | MIC (S.aureus ATCC12598-MSSA; S. aureus ATCC12598, inoculum 1.00101 (1 × 10^1 CFU/mL)): 0.5 mg/L and 0.86 μM | MIC (S.aureus ATCC12598-MSSA; S. aureus ATCC12598, inoculum 1.00102 (1 × 10^2 CFU/mL)): 2 mg/L and 3.46 μM | MIC (S.aureus ATCC12598-MSSA; S. aureus ATCC12598, inoculum 1.00103 (1 × 10^3 CFU/mL)): 3.46 μM and 2 mg/L | MIC (S.aureus ATCC12598-MSSA; S. aureus ATCC12598, inoculum 1.00104 (1 × 10^4 CFU/mL)): 2 mg/L and 3.46 μM | MIC (S.aureus ATCC12598-MSSA; S. aureus ATCC12598, inoculum 1.00105 (1 × 10^5 CFU/mL, standard)): 2 mg/L and 3.46 μM | MIC (S.aureus ATCC12598-MSSA; S. aureus ATCC12598, inoculum 1.00106 (1 × 10^6 CFU/mL)): 2 mg/L and 3.46 μM | MIC (S.aureus ATCC12598-MSSA; S. aureus ATCC12598, inoculum 1.00107 (1 × 10^7 CFU/mL)): 4 mg/L and 6.91 μM | MIC (S.aureus ATCC12598-MSSA; S.aureus ATCC12598-MSSA): 2 mg/L | MIC (S.aureus ATCC12598-MSSA; [6]): 3.46 µM | MIC ([4]; E. faecalis ATCC51299-VRE): 4 mg/L | MIC [4, 7]: 6.91 µM | MIC ([4]; E. faecalis ATCC51299, inoculum 1.00101 (1 × 10^1 CFU/mL)): 0.5 mg/L and 0.86 μM | MIC ([4]; E. faecalis ATCC51299, inoculum 1.00102 (1 × 10^2 CFU/mL)): 4 mg/L and 6.91 μM | MIC ([4]; E. faecalis ATCC51299, inoculum 1.00103 (1 × 10^3 CFU/mL)): 4 mg/L and 6.91 μM | MIC ([4]; E. faecalis ATCC51299, inoculum 1.00104 (1 × 10^4 CFU/mL)): 4 mg/L and 6.91 μM | MIC ([4]; E. faecalis ATCC51299, inoculum 1.00105 (1 × 10^5 CFU/mL, standard)): 4 mg/L and 6.91 μM | MIC ([4]; E. faecalis ATCC51299, inoculum 1.00106 (1 × 10^6 CFU/mL)): 8 mg/L and 13.83 μM | MIC ([4]; E. faecalis ATCC51299, inoculum 1.00107 (1 × 10^7 CFU/mL)): 32 mg/L and 55.30 μM | MIC (A. baumannii ATCC17978): 128 µg/mL | MIC (A. baumannii ATCC17978; value in brackets): 221.22 µM | MIC [5]: 4 µg/mL | MIC ([5]; value in brackets): 6.91 µM | MIC (K. pneumoniae ATCC700603): > 128 µg/mL | MIC (K. pneumoniae ATCC700603; value in brackets): > 221.22 µM | MIC (P. aeruginosa ATCC27853): > 128 µg/mL | MIC (P. aeruginosa ATCC27853; value in brackets): > 221.22 µM
Structure (SMILES): CCCCN(CCCC)c1ccc(-c2ccc(C=C3CCCc4c[n+](CC)ccc43)s2)s1.[I-] [PB8]
MBC (S.aureus USA300-CAMRSA): 4 µg/mL | MBC (S.aureus USA300-CAMRSA; value in brackets): 6.91 µM | MBC/MIC [2]: ≤ 4 | IC50 (CaCo-2 cells): 5.01 µM and 5 µM | MBC (S.aureus Mu50-VISA): 8 µg/mL | MBC (S.aureus Mu50-VISA; value in brackets): 13.83 µM | MBC (S.aureus ATCC29213-MSSA): 8 µg/mL | MBC (S.aureus ATCC29213-MSSA; value in brackets): 13.83 µM | MBC (S.aureus ATCC12598-MSSA; S.aureus ATCC12598-MSSA): 4 µg/mL | MBC (S.aureus ATCC12598-MSSA; [6]): 6.91 µM | MBC ([4]; E. faecalis ATCC51299-VRE): 4 µg/mL | MBC [4, 7]: 6.91 µM | MBC [5]: 4 µg/mL | MBC ([5]; value in brackets): 6.91 µM

Structure (SMILES): COc1cc(/C=C/c2ccc(O)c(O)c2)cc(OC)c1 [[33]-1]
MIC (S. aureus ATCC29213): 128 µg/mL (≈ 470 µM)
